Measured values taken from patent publication US6498246B1, “Glycosaminoglycan derivatives and processes for preparing same” (Seikagaku Corporation, priority 1998, dated 2002).
Read-outs that look alike come from different tables or passages of the source.

Legend:
mice = mice (males and females), cited from earlier work
blood plasma [1] = assay: Measurement of APTT (activated partial thromboplastin time); format: biochemical, rat; conditions: for APTT activity: concentration of standard heparin giving APTT 100 seconds as percentage of that of the substance, standard heparin = 100; for APTT (3 μg/ml): final concentration 3 μg/ml
Procedure: For the measurement of APTT, blood was collected from rat lower aorta by 3.2% citric acid {fraction (1/10 )} volume and centrifuged at 1,000×g for 10 minutes, and 100 μl of the thus obtained blood plasma and 100 μl of each sample having varied concentration were put into a measuring cup and incubated at 37° C. for 1 minute. Thereafter, 100 μl of Actin (trade name, Yoshitomi Pharmaceutical) which had been incubated in advance at 37° C. was added thereto, and the incubation was continued for 2 minutes. Next, 100 μl of 0.02 M CaCl2 solution which had been incubated in advance at 37° C. was added thereto, and the period of time from this point until generation of coagulation was measured using a blood coagulation automatic measuring apparatus (KC-10A: manufactured by Amelung). Also, in Table 2, the final concentration of each of the inventive substance and standard heparin in the medium, by which the APTT value becomes 100 seconds, was obtained to calculate the concentration of the standard heparin as percentage based on the concentration of the inventive substance, and this value (%) was used as the APTT activity of the inventive substance.

[2] = Anticoagulation activity of the standard heparin; conditions: property of the standard heparin preparation
blood plasma [3] = assay: Measurement of TT (thrombin time); format: biochemical, rat; conditions: for TT activity: concentration of standard heparin giving TT 100 seconds as percentage of that of the substance, standard heparin = 100; for TT activity/APTT activity: ratio of TT activity to APTT activity
Procedure: For the measurement of TT, 100 μl of the blood plasma and 100 μl of each sample having varied concentration were put into a measuring cup and incubated at 37° C. for 1 minute. Thereafter, 100 μl of thrombin (10 U/ml) incubated in advance at 37° C. was added thereto, and the period of time from this point until generation of coagulation was measured using the blood coagulation automatic measuring apparatus. In Table 2, the final concentration of each of the inventive substance and standard heparin in the medium, by which the TT value becomes 100 seconds, was obtained to calculate the concentration of the standard heparin as percentage based on the concentration of the inventive substance, and this value (%) was used as the TT activity of the inventive substance.

[4] = system: primary culture cells of Wistar rat cerebral cortex cells; assay: Measurement of neurite outgrowth promoting activity; format: cell-based; set-up: neurite outgrowth promoting activity (in words, FIG. 3): dose or concentration left out as unconfirmed; conditions: for Neurite outgrowth promoting activity: 10 μg/ml, ratio of cerebral cortex cell masses showing neurite outgrowth after 2 days of culturing
Procedure: A fetus was aseptically excised from a Wistar rat in the 17th day of pregnancy (purchased from Japan SLC). The brain was excised from the fetus, and the cerebral cortex was obtained by removing the cerebellum, mid-brain, inter-brain and meninges in an un-sulfated DMEM medium (prepared by dissolving 500 mg of anhydrous CaCl2, 0.25 mg of Fe(NO)3/9H2O, 1,000 mg of KCl, 193.3 mg of MgCl2, 9,250 mg of NaHCO3, 312.5 mg of NaH2PO4/H2O, 37.5 mg of Phenol Red, 275 mg of sodium pyruvate, 100 ml of MEM amino acid (No. 11130-051, manufactured by Gibco), 75 mg of L-glycine, 1,460 mg of L-glutamine, 105 mg of L-serine, 100 ml of MEM vitamin solution (No. 11120-052, manufactured by Gibco), 15,150 mg of NaCl and 11,250 mg of D-glucose in 2.5 L of sterilized distilled water and adjusting the solution to pH 7.2).
Cerebral cortexes obtained from 10 animals were finely sliced 100 times in both lengthwise and crosswise with a safety razor on a 60 mm dish, and the cerebral cortex slices were mixed twice with 10 ml of phosphate-buffered saline (PBS) and dispensed into a 50 ml capacity Falcon tube to which was subsequently added 11 ml of the un-sulfated DMEM medium. While uniformly suspending by gentle shaking, this was dispensed in 0.5 ml portions into wells of a 24 well plate (bottom area, 2 cm^2) which had been coated with 0.1% polyethylene imine. After 2 hours of the commencement of culturing, 100 μl of each sample was taken out, and 50 μl of PBS containing each substance to be tested having 10 time concentration of its final concentration and 50 μl of 400 μM chloric acid/un-sulfated DMEM medium were added. After 2 days of culturing at 37° C. under 5% CO2, 500 μl of 1% glutaraldehyde/PBS was gently over-layered to carry out 20 minutes of fixation at room temperature. After removing the supernatant by suction, 0.5 ml of PBS was slowly over-layered and then immediately removed by suction. A 20% Giemsa solution/potassium phosphate buffer was over-layered and allowed to stand for 2 hours at room temperature. After removing the supernatant by suction, 0.5 ml of PBS was added.

NSC-34 cells = assay: Measurement of neural cell death inhibition activity; format: cell-based, mouse
Procedure: That is, culturing was carried out by adding 0.09 ml of serum-free DMEM medium containing 1×10^5 of NSC-34 cells (received from Dr. Cashman (Toronto University): a mouse motor neuron-derived cultured cell strain) to a 96 well multi-plate which had been treated with 0.1% polyethylene imine in advance. Two hours after culturing, 10 μl of 100, 1,000 or 10,000 μg/ml aqueous solution of the inventive substance was added to respective wells (the final concentration in the medium is 10, 100 or 1,000 μg/ml). Thereafter, culturing was continued for 46 hours, and the number of survived cells was measured by the MTT process using a hemocytometer. By comparing with the number of survived cells after 2 hours of the culturing, the number of dead cells after 48 hours of the culturing of a control in which the inventive substance was not added was defined as 100%, and the ratio of difference from the number of dead cells when the inventive substance was added (the number of cells rescued from the cell death) was calculated as percentage (FIG. 6).

[5] = system: sialidase (homogenate of NSC-34 cells); assay: Measurement of sialidase activity with [3H]GM2 substrate; format: biochemical, mouse
Procedure: Into a 15 ml capacity glass tube, 1 mg of GM2 ganglioside (manufactured by IATRON) was put, and dissolved by adding 0.8 ml of distilled water, followed by sonication. To the resulting solution, 0.1 ml of PdCl2 solution (a supernatant fraction obtained by adding PdCl2 to distilled water to a concentration of 25 mg/ml, followed by sonication for 30 minutes, and then centrifuging the mixture at 2,000×g) was added, followed by stirring. […]
After the incubation, this was mixed with 5 ml of distilled water, applied to Sep-pak C18 cartridge column (manufactured by Waters) and eluted with methanol (3 ml) and then with chloroform : methanol (1:1 (v/v), 3 ml). The eluate was applied to DEAE-Sephadex A-25 column (manufactured by Pharmacia: 1 ml resin, swelled with methanol) and eluted with chloroform:methanol (1:1 (v/v), 3 ml), and then the eluate was dried to measure and compare radioactivity by a liquid scintillation counter. Radioactivity of a control in which 10 μl of distilled water was added instead of the standard heparin or inventive-substance was defined as 100% (FIG. 7). […]

Substance	LD50 (mice; intravenous injection)	LD50 (mice; oral administration)	LD50 (mice; subcutaneous or intraperitoneal administration)	APTT activity (blood plasma [1])	APTT (3 μg/ml) (blood plasma [1])	anticoagulation activity [2]	TT activity (blood plasma [3])	TT activity/APTT activity (blood plasma [3])	Neurite outgrowth promoting activity [4]	cells rescued from cell death (NSC-34 cells; 100 μg/ml aqueous solution added, NSC-34 cells)	activity to inhibit cell death and rescue the cells (NSC-34 cells; 100 and 1,000 μg/ml aqueous solution added, NSC-34 cells, 48 hours, MTT)	neurite outgrowth promoting activity in the survived cells (NSC-34 cells; survived NSC-34 cells)	neurite outgrowth promoting activity (in words, FIG. 3) [4]	sialidase inhibition activity compared with standard heparin ([5]; 10 μl of 10 μg/ml aqueous solution, 37° C., 1 hour (FIG. 7))	sialidase inhibition activity compared with NeuAc2en ([5]; 10 μl of 10, 100 or 1,000 μg/ml aqueous solution (FIG. 8))
heparin	about 1,000 mg/kg	≥ 5,000 mg/kg	≥ 2,500 mg/kg												
heparin sodium salt [Standard heparin, reference compound]				100%	248 s	160 IU/mg	100%	1	15.0%						
selectively 2-O-desulfated periodic acid oxidation-reduction heparin [Inventive substance]				2%	32 s		0.37%	0.185	29.7%	about half the number of cells is rescued from cell death	markedly inhibit cell death	neurite outgrowth promoting activity was observed	sharp increase in the neurite outgrowth promoting activity	stronger activity to inhibit sialidase which degrades ganglioside than the standard heparin	stronger sialidase inhibition activity than that of NeuAc2en
